Reference: patent publication US6586391B1, “Method of ameliorating erectile dysfunction” (Queen's University at Kingston, priority 1996, dated 2003)

Key:
Male Sprague-Dawley rats [1] = experiment: Experiment 1: cumulative vasoconstrictor blockade following acute NO synthase inhibition, MAP response; format: in vivo, rat; conditions: for % of range (MAP lowering as % of MAPrange) / delta MAP (peak MAP lowering): sequential cumulative blockade, mean ± S.D.
Protocol: (§1) Male Sprague-Dawley rats (325-400 g) obtained from Charles River Laboratories (Montreal, Quebec, Canada) were housed individually under conditions of a 12 h light/12 h dark cycle, with room temperature at 22-24° C., and were provided with Purina Rodent Chow and tap water ad libitum for at least 2 days before any experiments were started.
The surgical method was based on the technique of Thompson et at. (Hypertension 20: 809-815 (1992)). In brief, rats were anesthetized with ketamine/xylazine (70/5 mg/kg i.p.), and the descending aorta distal to the kidneys was catheterized with small bore TEFLON® tubing (0.012-in. i.d., o.d. 30 gauge, Cole-Parmer, Laval, Quebec, Canada) inserted into vinyl tubing (0.02-in. i.d., 0.060-in, o.d., 23 gauge). […] The catheters were filled with heparinized saline (10 IU/mL) and held in place by a small amount of cyanoacrylate tissue glue at the puncture site. The catheters were tunneled subcutaneously and exteriorized at the back of the neck and sutured in place. Two days after surgery, MAP could be recorded (Narco Physiograph, E&I Instruments, Houston, Tex. or MacLab Data Acquisition System, ADInstruments, Milford, Mass., U.S.A.). After connection, an equilibration period of approximately 30 min was allowed for the determination of the steady state level of MAP before any recording began. Baseline MAP was determined from mean readings over 5 min, taken from each rat at 15 min intervals for at least 1 h prior to the start of any experiment. After obtaining a baseline MAP, the cumulative/sequential vasoconstrictor blockade was started. MAP values are expressed as an average MAP over 2-3 min following the establishment of a new steady state (i.e., MAP is no longer changing).
NOS was inhibited by a single i.p. injection of N^ω-nitro-L-arginine-methyl ester (L-NAME, Sigma, 100 mg/kg; 100 mg/mL 0.9% sterile saline solution, Baxter Corp., Toronto, Ontario, Canada). The α1-adrenoceptor antagonist prazosin® (Sigma Chemical Company, St. Louis, Mo., U.S.A.) at a dose of 1 mg/Kg (in 0.9% saline and 5% ethanol [vol/vol], total volume 1 mL/kg) was used to block the majority of the SNS induced peripheral vasoconstriction. The non-peptide AT1 receptor antagonist losartan® (Dupont-Merck, 30 mg/kg i.p.) was used to block the effects of Ang II. The V1/V2 receptor antagonist [β-mercapto-β, β-cyclopenta-methylenepropionyl, O-Et-Tyr2-Val4-Arg8]-vasopressin (AVP) (20 μg/kg/min i.v., Sigma) was utilized to block the effects of vasopressin. The effects of the endothelin vasoconstrictor system, via ETA and ETB receptors, were blocked with a commercially available endothelin antagonist PD 145065 (100 mg/kg/min i.v., bolus, donated by Parke-Davis Pharmaceuticals). Each rat in the study received all of the aforementioned vasoconstrictor antagonists (i.e., a cumulative/sequential blockade).
The interval between administration was up to 15 min, where a new steady state MAP had been established before the blockade of the next vasoconstrictor system.
All data are expressed as a peak MAP lowering as a mean±S.D. Comparison of means between groups at each treatment level was done using a Student's T-test with the Bonferroni correction method, where appropriate.

Male Sprague-Dawley rats [2] = experiment: Experiment 2: effects of PD 145065 or losartan before or after NOS blockade on MAP; format: in vivo, rat
Protocol: as §1
The surgical method was based on the technique of Thompson et at. (Hypertension 20: 809-815 (1992)). […] Two days after surgery, MAP could be recorded (Narco Physiograph, E&I Instruments, Houston, Tex. or MacLab Data Acquisition System, ADInstruments, Milford, Mass., U.S.A.). […] Baseline MAP was determined from mean readings over 5 min, taken from each rat at 15 min intervals for at least 1 h prior to the start of any experiment. […] MAP values are expressed as an average MAP over 2-3 min following the establishment of a new steady state (i.e., MAP is no longer changing).
After obtaining appropriate baseline steady-state levels of MAP, the effects of administration of losartan (30 mg/kg i.p., n=3, under 30 mg/kg i.p. pentabarbital anesthetic) or PD 145065 (10 mg/kg/min, i,v., n=6, conscious rats previously catheterized) on resting MAP and then on the L-NAME (100 mg/kg, i.p.)-induced pressor response were assessed in two ways. […]

[3] = background statement; cited from earlier work
adult Wistar rats = experiment: Apomorphine-induced erection model; format: in vivo, rat
Protocol: Using the well-established apomorphine (APO)-induced erection model (apomorphine 80 μg/kg, administered subcutaneously), we counted the erections per 30 min interval in adult Wistar rats, per the protocol of Heaton, J. P. W., et al. (1991)(43). Rats were pretested with apomorphine alone to confirm and quantify normal erectile response(control Groups A and B). Rats were then treated with L-NAME (100 mg/kg, administered intraperitoneally) alone, acutely (at<1 h) and at 3 h; or the combination of ETA/B antagonist (PD 145065, 5 mg/kg/min, continuous intravenous infusion)+L-NAME.

pudendal vasculature = experiment: Isolated perfusion of the pudendal vasculature, perfusion pressure response; design: species or system rat
Protocol: Vascular responses using the isolated perfusion of the pudendal vasculature preparation have been assessed. FIG. 3 illustrates the dose response curve to the α-adrenoceptor agonist methoxamine (MXA) alone. FIG. 4 illustrates the dose-response curve to endothelin alone.
Male Wistar rats (400-500 g), obtained from Charles River Laboratories (Montreal, Quebec, Canada), were housed individually under conditions of a 12 h light/12 h dark cycle (temperature of 22-24° C.), and were provided with Purina Rodent Chow and tap water ad libitum for at least two days before starting any experiment.
The rats were anaesthetized with sodium pentabarbital (60 mg/kg i.p.) and the lower abdominal aorta was exposed through a mid-line incision. The isolation of the pudendal vasculature was developed by sequential ligation of all branches of the abdominal aorta not directly supplying the pudendal vasculature. The following arteries were dissected free and ligated: iliaca, femoralis, poplitea, glutea cranial, umbilicalis, epigastria caudal, pudenda external, glutea caudal, obturatoria, circumflexa femoris lateral, circumflexa femoris medial. After heparinization (1000 U/kg), the abdominal aorta was cannulated with a smooth, blunted 19-gauge needle. The arterial catheter was placed caudad into the aorta and the vena cava was cut and vented freely through the widely open abdominal cavity. The tip of the needle was advanced down the aorta to the iliac bifurcation and sutured in place. […] The perfusate was infused for 10 min, to flush the penile vasculature of blood, before starting any experiment.
The perfusate consisted of dextran (15%, average molecular weight: 71,400 Da, Sigma, St. Louis, Mo., U.S.A.) in Tyrode's solution (pH 7.4), which was aerated with 95% O2 and 5% CO2. The composition of the Tyrode's solution was KCI 20, CaCl2.2H2O 32.3, MgCl2.6H2O 5.1, NaH2PO4.2H2O 6.2, NaHCO3 100, glucose 100, and NaCl 800 mg per 100 mL fluid. The perfusate was held in a reservoir, and passed through a bubble trapping/mixing chamber and heating bath by an injection port located prior to the bubble trap for the introduction of pharmacological agents. An in-line peristaltic pump was used to establish flow at 0.5 mL/kg/min (Minipuls 2, Gilson Medical Elec., Inc., Middleton, Wis., U.S.A.). Added pharmacological agents, methoxamine (MXA) and sodium nitroprusside (SNP), were delivered by a syringe pump (Harvard Apparatus Infusion/Withdrawal Pump, Millis, Mass., U.S.A.). A servo-controlled heat chamber served to maintain rectal temperature at 36-38° C.

[4] = L-NAME (100 mg/kg i.p.) treated group

With CCCCc1nc(Cl)c(CO)n1Cc1ccc(-c2ccccc2-c2nn[nH]n2)cc1 [losartan] the “% of range (MAP lowering as % of MAPrange)” value (Male Sprague-Dawley rats [1]; [4]) was 24 ± 12%, the “delta MAP (peak MAP lowering)” value (Male Sprague-Dawley rats [1]; [4]) was 25 ± 13 mmHg and the “% of range (MAP lowering as % of MAPrange)” value (Male Sprague-Dawley rats [1]; saline control group) was 27 ± 8%. The “delta MAP (peak MAP lowering)” value (Male Sprague-Dawley rats [1]; saline control group) was 20 ± 6 mmHg and the “level of MAP after treatment” value (Male Sprague-Dawley rats [2]; losartan 30 mg/kg i.p., pentabarbital anesthetic, baseline 100±15 mmHg) was 78±21 mmHg.

In the case of “ET-1: endothelin-1, vasoconstrictor peptide”, the “potency as a vasoconstrictor relative to Ang II or catecholamines” value [3] is listed as “approximately 100 times”.

For CN1CCc2cccc3c2[C@H]1Cc1ccc(O)c(O)c1-3 [apomorphine], the “mean number of erections per 30 min interval” value (adult Wistar rats; Group-A (control): apomorphine 80 μg/kg s.c. alone, mean ± S.D.) was 3.0 ± 1.31 and the “mean number of erections per 30 min interval” value (adult Wistar rats; Group-B (control): apomorphine 80 μg/kg s.c. alone, mean ± S.D.) was 2.5 ± 0.58.

For COc1cc2nc(N3CCN(C(=O)c4ccco4)CC3)nc(N)c2cc1OC [prazosin], the “% of range (MAP lowering as % of MAPrange)” value (Male Sprague-Dawley rats [1]; [4]) was 25 ± 10 %, the “delta MAP (peak MAP lowering)” value (Male Sprague-Dawley rats [1]; [4]) was 27 ± 14 mmHg and the “% of range (MAP lowering as % of MAPrange)” value (Male Sprague-Dawley rats [1]; saline control group) was 48 ± 8%. The “delta MAP (peak MAP lowering)” value (Male Sprague-Dawley rats [1]; saline control group) was 36 ± 6 mmHg.

With CC[C@H](C)[C@H](NC(=O)[C@H](CC(=O)O)NC(=O)[C@H](CC(C)C)NC(=O)[C@H](Cc1c[nH]cn1)NC(=O)[C@@H]1CSSC[C@H](N)C(=O)N[C@@H](CO)C(=O)N[C@H]2CSSC[C@H](NC(=O)[C@H](CCC(=O)O)NC(=O)[C@H](CCCCN)NC(=O)[C@H](CC(=O)O)NC(=O)[C@H](CCSC)NC(=O)[C@H](CC(C)C)NC(=O)[C@H](CO)NC(=O)[C@H](CO)NC2=O)C(=O)N[C@@H](C(C)C)C(=O)N[C@@H](Cc2ccc(O)cc2)C(=O)N[C@@H](Cc2ccccc2)C(=O)N1)C(=O)N[C@H](C(=O)N[C@@H](Cc1c[nH]c2ccccc12)C(=O)O)[C@@H](C)CC [Endothelin] the “Δ Perfusion Pressure” value (pudendal vasculature; Endothelin sub-pressor alone, methoxamine 0 μg/ml, n = 4) was 0 mmHg.

With COC(=O)[C@@H](N)CCCNC(=N)N[N+](=O)[O-] [L-NAME, N^ω-nitro-L-arginine-methyl ester] the “steady state level of MAP” value (Male Sprague-Dawley rats [1]; L-NAME-treated animals, before vasoconstrictor blockade) was 108±9 mmHg, the “experimentally induced pressure increase as a result of NOS inhibition” value (Male Sprague-Dawley rats [1]; rats) was 30-40% and the “delta MAP response 20 min after L-NAME” value (Male Sprague-Dawley rats [2]; saline pre-treatment group, L-NAME 100 mg/kg i.p.) was 40±8 mmHg. The “mean number of erections per 30 min interval” value (adult Wistar rats; L-NAME 100 mg/kg i.p. alone, at 3 h, apomorphine-induced) was 3.7 ± 1.38.

With “[β-mercapto-β, β-cyclopenta-methylenepropionyl, O-Et-Tyr2-Val4-Arg8]-vasopressin [(O-ET)VAVP]” the “% of range (MAP lowering as % of MAPrange)” value (Male Sprague-Dawley rats [1]; [4]) was 15 ± 9 %, the “delta MAP (peak MAP lowering)” value (Male Sprague-Dawley rats [1]; [4]) was 19 ± 13 mmHg and the “% of range (MAP lowering as % of MAPrange)” value (Male Sprague-Dawley rats [1]; saline control group) was 37 ± 15%. The “delta MAP (peak MAP lowering)” value (Male Sprague-Dawley rats [1]; saline control group) was 21 ± 11 mmHg.

With COc1ccc(OC)c(C(O)C(C)N)c1 (stereo not drawn) [methoxamine] the “Δ Perfusion Pressure” value (pudendal vasculature; Control, methoxamine 0.1 μg/ml, n = 6) was 0 mmHg, the “Δ Perfusion Pressure” value (pudendal vasculature; Control, methoxamine 0.25 μg/ml, n = 6) was 0 mmHg and the “Δ Perfusion Pressure” value (pudendal vasculature; Control, methoxamine 0.5 μg/ml, n = 6) was 0 mmHg. For the same compound, the “Δ Perfusion Pressure” value (pudendal vasculature; Control, methoxamine 1.0 μg/ml, n = 6) was 4 ± 1 mmHg, the “Δ Perfusion Pressure” value (pudendal vasculature; Control, methoxamine 2.0 μg/ml, n = 6) was 11 ± 2 mmHg and the “Δ Perfusion Pressure” value (pudendal vasculature; Control, methoxamine 4.0 μg/ml, n = 6) was 36 ± 11 mmHg. For the same compound, the “Δ Perfusion Pressure” value (pudendal vasculature; Control, methoxamine 8.0 μg/ml, n = 6) was 67 ± 24 mmHg, the “Δ Perfusion Pressure” value (pudendal vasculature; Endothelin sub-pressor, methoxamine 0.1 μg/ml, n = 4) was 0 mmHg and the “Δ Perfusion Pressure” value (pudendal vasculature; Endothelin sub-pressor, methoxamine 0.25 μg/ml, n = 4) was 34 ± 2 mmHg. For the same compound, the “Δ Perfusion Pressure” value (pudendal vasculature; Endothelin sub-pressor, methoxamine 0.5 μg/ml, n = 4) was 93 ± 30 mmHg, the “Δ Perfusion Pressure” value (pudendal vasculature; Endothelin sub-pressor, methoxamine 1.0 μg/ml, n = 4) was 168 ± 16 mmHg and the “shift of MXA concentration-response (perfusion pressure) relationship to lower concentrations” value (pudendal vasculature; with low sub-pressor dose of endothelin vs MXA alone) was “more than 10 fold”.
